Data from paper PMC7347136 (PLoS ONE, 2020).

What was measured:
Test in all cases: Carna kinase panel screen
Type in all cases: biochemical
Conditions in all cases: read-out: % Inhibition ± SD
AMPKa2 = target: T1, AMPKa2 (Homo sapiens, UniProt P54646)
T1 construct: purchased Carna Biosciences
Protocol: (§1) IC50 values were determined from a 10-point concentration curve using ATP concentrations approximating Km values. […] The percentage inhibition of each test solution was calculated, which allowed the IC50 value to be determined from concentration versus percentage inhibition curves by fitting to a four parameter logistic curve.

ARG = target: T2, ARG (Homo sapiens, UniProt P42684)
T2 construct: purchased Carna Biosciences
Protocol: as §1

AurC = target: T3, AurC (Homo sapiens, UniProt Q9UQB9)
T3 construct: purchased Carna Biosciences
Protocol: as §1

BMPR1A = target: T4, BMPR1A (Homo sapiens, UniProt P36894)
T4 construct: purchased Carna Biosciences
Protocol: as §1

BTK = target: T5, BTK (Homo sapiens, UniProt Q06187)
T5 construct: purchased Carna Biosciences
Protocol: as §1

CDC7 = target: T6, CDC7 (Homo sapiens, UniProt O00311)
T6 construct: purchased Carna Biosciences
Protocol: as §1

CDK5 = target: T7, CDK5 (Homo sapiens, UniProt Q00535)
T7 construct: purchased Carna Biosciences
Protocol: as §1

CDK9 = target: T8, CDK9 (Homo sapiens, UniProt P50750)
T8 construct: purchased Carna Biosciences
Protocol: as §1

CLK2 = target: T9, CLK2 (Homo sapiens, UniProt P49760)
T9 construct: purchased Carna Biosciences
Protocol: as §1

COT = target: T10, COT (Homo sapiens, UniProt P41279)
T10 construct: purchased Carna Biosciences
Protocol: as §1

CaMK2g = target: T11, CaMK2g (Homo sapiens, UniProt Q13555)
T11 construct: purchased Carna Biosciences
Protocol: as §1

DDR2 = target: T12, DDR2 (Homo sapiens, UniProt Q16832)
T12 construct: purchased Carna Biosciences
Protocol: as §1

DYRK3 = target: T13, DYRK3 (Homo sapiens, UniProt O43781)
T13 construct: purchased Carna Biosciences
Protocol: as §1

EphB1 = target: T14, EphB1 (Homo sapiens, UniProt P54762)
T14 construct: purchased Carna Biosciences
Protocol: as §1

Erk5 = target: T15, Erk5 (Homo sapiens, UniProt Q13164)
T15 construct: purchased Carna Biosciences
Protocol: as §1

GSK3a = target: T16, GSK3a (Homo sapiens, UniProt P49840)
T16 construct: purchased Carna Biosciences
Protocol: as §1

HER4 = target: T17, HER4 (Homo sapiens, UniProt Q15303)
T17 construct: purchased Carna Biosciences
Protocol: as §1

HGK = target: T18, HGK (Homo sapiens, UniProt O95819)
T18 construct: purchased Carna Biosciences
Protocol: as §1

IGF1R = target: T19, IGF1R (Homo sapiens, UniProt P08069)
T19 construct: purchased Carna Biosciences
Protocol: as §1

INSR = target: T20, INSR (Homo sapiens, UniProt P06213)
T20 construct: purchased Carna Biosciences
Protocol: as §1

IRR = target: T21, IRR (Homo sapiens, UniProt P14616)
T21 construct: purchased Carna Biosciences
Protocol: as §1

JAK1 = target: T22, JAK1 (Homo sapiens, UniProt P23458)
T22 construct: purchased Carna Biosciences
Protocol: as §1

JNK1 = target: T23, JNK1 (Homo sapiens, UniProt P45983)
T23 construct: purchased Carna Biosciences
Protocol: as §1

LTK = target: T24, LTK (Homo sapiens, UniProt P29376)
T24 construct: purchased Carna Biosciences
Protocol: as §1

LYNa = target: T25, LYNa (Homo sapiens, UniProt P07948)
T25 construct: purchased Carna Biosciences
Protocol: as §1

MARK2 = target: T26, MARK2 (Homo sapiens, UniProt Q7KZI7)
T26 construct: purchased Carna Biosciences
Protocol: as §1

MARK4 = target: T27, MARK4 (Homo sapiens, UniProt Q96L34)
T27 construct: purchased Carna Biosciences
Protocol: as §1

MER = target: T28, MER (Homo sapiens, UniProt Q12866)
T28 construct: purchased Carna Biosciences
Protocol: as §1

MRCKa = target: T29, MRCKa (Homo sapiens, UniProt Q5VT25)
T29 construct: purchased Carna Biosciences
Protocol: as §1

MST1 = target: T30, MST1 (Homo sapiens, UniProt Q13043)
T30 construct: purchased Carna Biosciences
Protocol: as §1

MUSK = target: T31, MUSK (Homo sapiens, UniProt O15146)
T31 construct: purchased Carna Biosciences
Protocol: as §1

NuaK1 = target: T32, NuaK1 (Homo sapiens, UniProt O60285)
T32 construct: purchased Carna Biosciences
Protocol: as §1

PEK = target: T33, PEK (Homo sapiens, UniProt Q9NZJ5)
T33 construct: purchased Carna Biosciences
Protocol: as §1

PKACa = target: T34, PKACa (Homo sapiens, UniProt P17612)
T34 construct: purchased Carna Biosciences
Protocol: as §1

PKCd = target: T35, PKCd (Homo sapiens, UniProt Q05655)
T35 construct: purchased Carna Biosciences
Protocol: as §1

PKCe = target: T36, PKCe (Homo sapiens, UniProt Q02156)
T36 construct: purchased Carna Biosciences
Protocol: as §1

PKCh = target: T37, PKCh (Homo sapiens, UniProt P24723)
T37 construct: purchased Carna Biosciences
Protocol: as §1

PLK2 = target: T38, PLK2 (Homo sapiens, UniProt Q9NYY3)
T38 construct: purchased Carna Biosciences
Protocol: as §1

ROCK2 = target: T39, ROCK2 (Homo sapiens, UniProt O75116)
T39 construct: purchased Carna Biosciences
Protocol: as §1

ROS = target: T40, ROS (Homo sapiens, UniProt P08922)
T40 construct: purchased Carna Biosciences
Protocol: as §1

RSK3 = target: T41, RSK3 (Homo sapiens, UniProt Q15349)
T41 construct: purchased Carna Biosciences
Protocol: as §1

SGK = target: T42, SGK (Homo sapiens, UniProt O00141)
T42 construct: purchased Carna Biosciences
Protocol: as §1

SRC = target: T43, SRC (Homo sapiens, UniProt P12931)
T43 construct: purchased Carna Biosciences
Protocol: as §1

TEC = target: T44, TEC (Homo sapiens, UniProt P42680)
T44 construct: purchased Carna Biosciences
Protocol: as §1

T44 sequence (P42680 whole entry): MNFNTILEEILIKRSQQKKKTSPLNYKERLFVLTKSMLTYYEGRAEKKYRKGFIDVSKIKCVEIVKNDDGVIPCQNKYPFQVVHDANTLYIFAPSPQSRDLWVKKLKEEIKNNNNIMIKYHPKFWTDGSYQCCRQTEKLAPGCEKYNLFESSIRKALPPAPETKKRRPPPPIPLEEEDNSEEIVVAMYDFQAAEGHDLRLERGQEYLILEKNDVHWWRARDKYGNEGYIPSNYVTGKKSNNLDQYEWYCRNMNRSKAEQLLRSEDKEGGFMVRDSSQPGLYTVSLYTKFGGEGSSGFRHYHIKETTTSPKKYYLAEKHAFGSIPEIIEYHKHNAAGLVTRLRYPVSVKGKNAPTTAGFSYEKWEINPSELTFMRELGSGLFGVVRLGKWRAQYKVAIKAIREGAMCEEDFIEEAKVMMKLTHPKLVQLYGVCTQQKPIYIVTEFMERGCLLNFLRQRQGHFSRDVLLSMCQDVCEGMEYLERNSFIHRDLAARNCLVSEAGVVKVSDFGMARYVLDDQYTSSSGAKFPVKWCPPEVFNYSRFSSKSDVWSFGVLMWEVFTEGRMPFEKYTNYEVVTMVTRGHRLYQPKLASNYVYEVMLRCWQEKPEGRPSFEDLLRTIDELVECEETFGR
T42 sequence (O00141 whole entry): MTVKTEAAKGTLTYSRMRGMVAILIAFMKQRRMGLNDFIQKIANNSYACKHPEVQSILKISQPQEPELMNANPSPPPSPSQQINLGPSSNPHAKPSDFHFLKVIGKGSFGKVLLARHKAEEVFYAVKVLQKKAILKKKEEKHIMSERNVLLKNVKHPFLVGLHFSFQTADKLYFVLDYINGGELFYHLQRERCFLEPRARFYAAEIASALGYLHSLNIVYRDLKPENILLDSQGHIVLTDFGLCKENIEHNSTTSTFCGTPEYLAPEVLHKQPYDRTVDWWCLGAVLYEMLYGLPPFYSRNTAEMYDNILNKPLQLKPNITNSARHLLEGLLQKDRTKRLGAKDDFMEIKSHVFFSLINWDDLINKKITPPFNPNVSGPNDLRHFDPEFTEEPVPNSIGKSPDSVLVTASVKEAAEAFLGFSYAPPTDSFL
T22 sequence (P23458 whole entry): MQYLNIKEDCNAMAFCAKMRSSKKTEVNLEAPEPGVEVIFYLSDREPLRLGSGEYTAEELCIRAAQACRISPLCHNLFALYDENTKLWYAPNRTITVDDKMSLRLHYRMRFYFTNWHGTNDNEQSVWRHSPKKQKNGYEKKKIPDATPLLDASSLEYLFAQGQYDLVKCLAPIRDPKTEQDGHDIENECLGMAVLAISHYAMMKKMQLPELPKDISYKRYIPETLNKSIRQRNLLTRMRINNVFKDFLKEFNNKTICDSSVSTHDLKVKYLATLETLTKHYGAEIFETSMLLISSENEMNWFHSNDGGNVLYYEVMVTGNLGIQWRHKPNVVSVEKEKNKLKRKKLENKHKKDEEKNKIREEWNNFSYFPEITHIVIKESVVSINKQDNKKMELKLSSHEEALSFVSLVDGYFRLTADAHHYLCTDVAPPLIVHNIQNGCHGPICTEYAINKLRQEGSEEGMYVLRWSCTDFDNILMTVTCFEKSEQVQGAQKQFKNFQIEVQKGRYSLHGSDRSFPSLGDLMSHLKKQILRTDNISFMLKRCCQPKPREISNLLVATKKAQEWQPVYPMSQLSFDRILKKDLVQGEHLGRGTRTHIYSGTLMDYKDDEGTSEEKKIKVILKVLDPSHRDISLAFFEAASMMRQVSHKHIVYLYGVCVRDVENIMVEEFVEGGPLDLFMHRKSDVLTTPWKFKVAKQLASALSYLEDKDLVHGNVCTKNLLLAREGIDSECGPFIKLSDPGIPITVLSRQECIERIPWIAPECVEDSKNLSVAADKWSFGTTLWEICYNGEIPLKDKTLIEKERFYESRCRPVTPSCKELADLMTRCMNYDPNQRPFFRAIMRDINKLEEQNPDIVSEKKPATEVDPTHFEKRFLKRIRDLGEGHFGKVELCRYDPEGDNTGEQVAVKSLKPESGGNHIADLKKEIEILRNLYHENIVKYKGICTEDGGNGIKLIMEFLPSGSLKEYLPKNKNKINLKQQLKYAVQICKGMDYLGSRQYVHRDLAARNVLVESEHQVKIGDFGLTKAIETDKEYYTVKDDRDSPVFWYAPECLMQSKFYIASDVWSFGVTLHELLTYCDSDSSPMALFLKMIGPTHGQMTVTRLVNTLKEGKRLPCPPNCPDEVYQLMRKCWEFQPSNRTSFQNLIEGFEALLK
T30 sequence (Q13043 whole entry): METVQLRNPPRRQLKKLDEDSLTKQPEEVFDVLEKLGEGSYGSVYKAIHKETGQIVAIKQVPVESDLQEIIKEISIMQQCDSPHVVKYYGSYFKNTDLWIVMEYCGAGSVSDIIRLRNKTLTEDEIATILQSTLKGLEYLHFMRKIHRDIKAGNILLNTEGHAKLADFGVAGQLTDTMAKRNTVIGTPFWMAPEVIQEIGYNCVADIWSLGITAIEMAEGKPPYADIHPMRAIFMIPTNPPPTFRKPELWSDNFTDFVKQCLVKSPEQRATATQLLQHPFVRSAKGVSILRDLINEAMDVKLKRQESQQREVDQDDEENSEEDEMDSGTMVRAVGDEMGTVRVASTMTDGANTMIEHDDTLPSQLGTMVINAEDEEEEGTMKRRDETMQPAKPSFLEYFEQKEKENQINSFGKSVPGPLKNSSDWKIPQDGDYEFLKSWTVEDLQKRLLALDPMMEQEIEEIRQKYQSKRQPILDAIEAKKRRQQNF
T28 sequence (Q12866 21-999): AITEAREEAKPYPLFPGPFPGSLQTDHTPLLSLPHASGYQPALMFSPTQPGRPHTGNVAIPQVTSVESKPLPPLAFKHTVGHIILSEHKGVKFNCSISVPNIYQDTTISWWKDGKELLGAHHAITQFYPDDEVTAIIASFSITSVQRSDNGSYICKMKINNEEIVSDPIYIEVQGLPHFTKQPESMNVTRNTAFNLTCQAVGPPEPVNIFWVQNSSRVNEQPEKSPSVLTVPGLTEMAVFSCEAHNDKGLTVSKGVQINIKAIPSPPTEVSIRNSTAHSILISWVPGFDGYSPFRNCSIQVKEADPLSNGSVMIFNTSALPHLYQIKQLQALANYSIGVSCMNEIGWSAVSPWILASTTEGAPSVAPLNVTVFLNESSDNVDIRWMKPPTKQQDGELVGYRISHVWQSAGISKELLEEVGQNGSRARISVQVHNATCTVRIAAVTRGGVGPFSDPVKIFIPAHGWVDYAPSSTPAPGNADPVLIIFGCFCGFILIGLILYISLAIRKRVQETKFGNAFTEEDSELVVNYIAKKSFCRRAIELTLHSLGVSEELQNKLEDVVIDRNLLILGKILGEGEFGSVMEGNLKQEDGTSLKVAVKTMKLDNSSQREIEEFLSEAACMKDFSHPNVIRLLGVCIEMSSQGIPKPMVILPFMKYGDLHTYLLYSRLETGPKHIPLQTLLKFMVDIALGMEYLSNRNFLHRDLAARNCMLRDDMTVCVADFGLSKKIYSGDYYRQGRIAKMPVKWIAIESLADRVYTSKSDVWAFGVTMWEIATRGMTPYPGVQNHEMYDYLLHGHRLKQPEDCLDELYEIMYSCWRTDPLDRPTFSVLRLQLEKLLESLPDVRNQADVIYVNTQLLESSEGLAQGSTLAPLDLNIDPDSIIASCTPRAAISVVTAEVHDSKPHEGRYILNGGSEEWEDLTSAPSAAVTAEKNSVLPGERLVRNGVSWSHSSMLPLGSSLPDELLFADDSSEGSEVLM
T26 sequence (Q7KZI7 whole entry): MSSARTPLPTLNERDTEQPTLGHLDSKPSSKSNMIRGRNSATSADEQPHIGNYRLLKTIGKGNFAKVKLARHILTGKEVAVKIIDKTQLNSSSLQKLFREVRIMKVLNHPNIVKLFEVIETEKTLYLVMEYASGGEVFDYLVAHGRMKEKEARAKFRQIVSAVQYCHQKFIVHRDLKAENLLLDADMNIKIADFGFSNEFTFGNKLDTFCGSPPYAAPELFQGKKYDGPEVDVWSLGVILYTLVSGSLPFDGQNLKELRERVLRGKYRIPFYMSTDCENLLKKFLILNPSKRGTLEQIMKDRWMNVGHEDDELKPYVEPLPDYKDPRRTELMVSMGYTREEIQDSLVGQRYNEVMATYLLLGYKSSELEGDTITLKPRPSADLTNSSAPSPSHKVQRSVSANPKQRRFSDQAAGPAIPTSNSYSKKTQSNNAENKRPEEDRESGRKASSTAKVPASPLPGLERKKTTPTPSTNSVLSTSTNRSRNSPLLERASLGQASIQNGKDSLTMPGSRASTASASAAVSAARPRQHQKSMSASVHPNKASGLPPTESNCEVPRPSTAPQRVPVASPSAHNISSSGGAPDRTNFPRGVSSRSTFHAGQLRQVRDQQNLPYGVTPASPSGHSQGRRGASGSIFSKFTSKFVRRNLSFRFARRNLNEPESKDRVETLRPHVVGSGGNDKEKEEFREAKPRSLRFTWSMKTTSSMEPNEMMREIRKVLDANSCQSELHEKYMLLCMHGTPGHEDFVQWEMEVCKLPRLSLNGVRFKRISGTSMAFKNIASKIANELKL
T43 sequence (P12931 whole entry): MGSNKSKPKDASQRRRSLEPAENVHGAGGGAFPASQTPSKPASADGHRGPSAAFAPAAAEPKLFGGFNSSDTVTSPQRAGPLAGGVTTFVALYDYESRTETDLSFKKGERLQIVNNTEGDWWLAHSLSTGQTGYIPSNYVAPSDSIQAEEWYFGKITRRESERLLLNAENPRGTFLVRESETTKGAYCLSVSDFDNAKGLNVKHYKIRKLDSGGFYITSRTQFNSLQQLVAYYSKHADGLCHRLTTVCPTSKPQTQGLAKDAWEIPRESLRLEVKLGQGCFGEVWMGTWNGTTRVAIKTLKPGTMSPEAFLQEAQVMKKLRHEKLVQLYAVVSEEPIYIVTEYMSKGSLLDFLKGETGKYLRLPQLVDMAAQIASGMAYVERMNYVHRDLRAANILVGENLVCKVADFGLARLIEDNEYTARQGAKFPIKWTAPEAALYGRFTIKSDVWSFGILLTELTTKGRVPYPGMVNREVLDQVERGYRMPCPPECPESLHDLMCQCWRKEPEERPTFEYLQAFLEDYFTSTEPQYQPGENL

CC[C@H](Nc1nc(NCc2cnc(C)cc2C)c2ncn(C(C)C)c2n1)[C@@H](C)O [Fadraciclib, 2-pentanol, 3-[[6-[[(4,6-dimethyl-3-pyridinyl)methyl]amino]-9-(1-methylethyl)-9Hpurin-2-yl]amino]-, (2R,3S)]
inhibition at 1 µM (AMPKa2): -12.8 ± 0.7%
inhibition at 1 µM (ARG): 1.8 ± 0.1%
inhibition at 1 µM (AurC): 3 ± 0.2%
inhibition at 1 µM (BMPR1A): 2.2%
inhibition at 1 µM (BTK): 5.3 ± 0.4%
inhibition at 1 µM (CDC7): -5.7%
inhibition at 1 µM (CDK5): 98.1 ± 4%
inhibition at 1 µM (CDK9): 96.6 ± 3.2%
inhibition at 1 µM (CLK2): 87.8 ± 2%
inhibition at 1 µM (COT): -15.6 ± 0.4%
inhibition at 1 µM (CaMK2g): 12.5 ± 0.4%
inhibition at 1 µM (DDR2): -9.9 ± 0.1%
inhibition at 1 µM (DYRK3): 0.9%
inhibition at 1 µM (EphB1): 3.9 ± 0.1%
inhibition at 1 µM (Erk5): 3.7 ± 0.1%
inhibition at 1 µM (GSK3a): 19.3 ± 1.3%
inhibition at 1 µM (HER4): -13 ± 0.3%
inhibition at 1 µM (HGK): -23.8 ± 2.7%
inhibition at 1 µM (IGF1R): -17.1 ± 0.2%
inhibition at 1 µM (INSR): -12.2 ± 0.8%
inhibition at 1 µM (IRR): -5.5%
inhibition at 1 µM (JAK1): -3.1%
inhibition at 1 µM (JNK1): -13.5 ± 1.3%
inhibition at 1 µM (LTK): 6.6 ± 0.1%
inhibition at 1 µM (LYNa): 2.2 ± 0.1%
inhibition at 1 µM (MARK2): -1.9 ± 0.1%
inhibition at 1 µM (MARK4): -5.1 ± 0.4%
inhibition at 1 µM (MER): -9.1 ± 0.1%
inhibition at 1 µM (MRCKa): -14.8 ± 0.1%
inhibition at 1 µM (MST1): 4 ± 0.1%
inhibition at 1 µM (MUSK): 11.4 ± 0.3%
inhibition at 1 µM (NuaK1): -2.5%
inhibition at 1 µM (PEK): 0.3%
inhibition at 1 µM (PKACa): -0.8%
inhibition at 1 µM (PKCd): 28.7 ± 2.7%
inhibition at 1 µM (PKCe): 7.6 ± 0.1%
inhibition at 1 µM (PKCh): -6.1 ± 0.1%
inhibition at 1 µM (PLK2): 1%
inhibition at 1 µM (ROCK2): 4.2%
inhibition at 1 µM (ROS): -2 ± 0.1%
inhibition at 1 µM (RSK3): 7.7%
inhibition at 1 µM (SGK): -0.8%
inhibition at 1 µM (SRC): 2.7%
inhibition at 1 µM (TEC): -14.9%
